Each block holds one compound with its values, some of them ahead of it. Active and inactive are the calls of the source. The rule behind the calls is not given here.
Experiments:
Mus musculus [1] = test: Antiinflammatory activity in carrageenan-induced thrombosis in male BALB/c mouse model assessed as reduction in IL-6 level administered as oral dose by ELISA method; assay type: functional, organism-based; conditions: dose 10-30 mg/kg
Mus musculus [2] = test: Antithrombotic activity in carrageenan induced thrombosis in male BALB/c mouse model assessed as inhibition of tail thrombosis at 20 to 30 mg/kg, IG preadministered with PBS for 7 days followed by carrageenan stimulation on day 7 and measured after 2 days post compound administration by H and E staining based analysis; assay type: functional, organism-based; conditions: dose 20-30 mg/kg, time 2.0 day
[3] = Selectivity index, ratio of IC50 for chymotrypsin (unknown origin) to IC50 for FXIIa (unknown origin)
[4] = Stability of the compound in water under acidic condition at pH 3 measured after 48 hrs; assay type: physicochemical; conditions: buffer, pH 3, 48 h
Mus musculus [5] = test: Antiinflammatory activity in carrageenan-induced thrombosis in male BALB/c mouse model assessed as reduction in IL-1 beta level administered as oral dose by ELISA method; assay type: functional, organism-based; conditions: dose 10-30 mg/kg
Coagulation factor XII [6] = biological target: T1, Coagulation factor XII (Homo sapiens, UniProt P00748); test: Inhibition of FXIIa (unknown origin) using H-D-Pro-Phe-Arg-pNA as substrate incubated for 20 mins followed by substrate addition by spectrophotometric analysis
T1 sequence (P00748 whole entry): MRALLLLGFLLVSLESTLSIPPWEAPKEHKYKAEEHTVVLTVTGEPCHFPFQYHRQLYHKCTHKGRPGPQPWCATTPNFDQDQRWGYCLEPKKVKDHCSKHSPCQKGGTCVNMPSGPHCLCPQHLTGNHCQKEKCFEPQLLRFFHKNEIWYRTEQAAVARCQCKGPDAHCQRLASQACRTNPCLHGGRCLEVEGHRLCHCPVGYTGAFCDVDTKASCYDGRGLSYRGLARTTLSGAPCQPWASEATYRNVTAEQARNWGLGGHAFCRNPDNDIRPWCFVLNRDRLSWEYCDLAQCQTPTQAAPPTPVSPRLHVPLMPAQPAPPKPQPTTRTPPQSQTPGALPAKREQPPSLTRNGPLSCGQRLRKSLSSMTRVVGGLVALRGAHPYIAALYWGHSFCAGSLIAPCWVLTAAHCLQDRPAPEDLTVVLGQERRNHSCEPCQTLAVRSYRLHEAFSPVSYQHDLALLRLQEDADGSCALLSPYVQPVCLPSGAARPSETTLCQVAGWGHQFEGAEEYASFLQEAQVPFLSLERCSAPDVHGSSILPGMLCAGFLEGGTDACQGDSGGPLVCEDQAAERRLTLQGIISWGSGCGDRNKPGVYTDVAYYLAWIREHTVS

Smooth muscle cell = test: Ant-icalcification activity in human aortic Smooth muscle cell at 10 uM measured after 14 days with replacement of fresh medium for every 2 to 3 days by Alizarin red S staining based analysis; assay type: functional; conditions: time 14.0 day
[7] = AUC (0 to infinity) in BALB/c mouse at 5 mg/kg, po measured upto 24 hrs by LC-MS/MS analysis; assay type: ADME, organism-based; conditions: in vivo
[8] = Toxicity in BALB/c mouse assessed as effect on heart at 60 to 100 mg/kg, po measured after 14 days by H and E staining based analysis; assay type: organism-based; conditions: in vivo, 336 h, dose 60-100 mg/kg, time 14 day
[9] = Half life in BALB/c mouse at 1 mg/kg, iv measured upto 24 hrs by LC-MS/MS analysis; assay type: ADME, organism-based; conditions: in vivo
[10] = Toxicity in BALB/c mouse assessed as effect on UREA level in serum at 60 to 100 mg/kg, po measured after 14 days; assay type: organism-based; conditions: in vivo, 336 h, dose 60-100 mg/kg, time 14 day
Coagulation factor XII [11] = biological target: T1, Coagulation factor XII; test: Binding affinity to FXIIa (unknown origin) assessed as inhibition constant using H-D-Pro-Phe-Arg-pNA.2HCl as substrate by spectrophotometric analysis
[12] = Toxicity in BALB/c mouse assessed as effect on spleen at 60 to 100 mg/kg, po measured after 14 days by H and E staining based analysis; assay type: organism-based; conditions: in vivo, 336 h, dose 60-100 mg/kg, time 14 day
[13] = MRT(0 to infinity) in BALB/c mouse at 5 mg/kg, po measured upto 24 hrs by LC-MS/MS analysis; assay type: ADME, organism-based; conditions: in vivo
[14] = Toxicity in BALB/c mouse assessed as effect on CREA level in serum at 60 to 100 mg/kg, po measured after 14 days; assay type: organism-based; conditions: in vivo, 336 h, dose 60-100 mg/kg, time 14 day
[15] = biological target: T2, Coagulation factor XII (Homo sapiens) (UniProt P00748); test: Binding affinity to FXIIa (unknown origin) assessed as Kinact/Ki using H-D-Pro-Phe-Arg-pNA.2HCl as substrate by spectrophotometric analysis
T2 sequence (whole entry): T1 sequence (P00748 whole entry)

[16] = Oral bioavailability in BALB/c mouse at 5 mg/kg measured upto 24 hrs by LC-MS/MS analysis; assay type: ADME, organism-based; conditions: in vivo
[17] = Tmax in BALB/c mouse at 1 mg/kg, iv measured upto 24 hrs by LC-MS/MS analysis; assay type: ADME, organism-based; conditions: in vivo
Mus musculus [18] = test: Antiinflammatory activity in carrageenan-induced thrombosis in male BALB/c mouse model assessed as reduction in IL-6 level at 10 to 30 mg/kg, po by ELISA method; assay type: functional, organism-based; conditions: dose 10-30 mg/kg
[19] = Toxicity in BALB/c mouse assessed as effect on kidney at 60 to 100 mg/kg, po measured after 14 days by H and E staining based analysis; assay type: organism-based; conditions: in vivo, 336 h, dose 60-100 mg/kg, time 14 day
[20] = Toxicity in BALB/c mouse assessed as effect on HBDH level in serum at 60 to 100 mg/kg, po measured after 14 days; assay type: organism-based; conditions: in vivo, 336 h, dose 60-100 mg/kg, time 14 day
[21] = Toxicity in BALB/c mouse assessed as effect on AST level in serum at 60 to 100 mg/kg, po measured after 14 days; assay type: organism-based; conditions: in vivo, 336 h, dose 60-100 mg/kg, time 14 day
[22] = Toxicity in BALB/c mouse assessed as effect on liver at 60 to 100 mg/kg, po measured after 14 days by H and E staining based analysis; assay type: organism-based; conditions: in vivo, 336 h, dose 60-100 mg/kg, time 14 day
[23] = Clearance in BALB/c mouse at 1 mg/kg, iv measured upto 24 hrs by LC-MS/MS analysis; assay type: ADME, organism-based; conditions: in vivo
[24] = Tmax in BALB/c mouse at 5 mg/kg, po measured upto 24 hrs by LC-MS/MS analysis; assay type: ADME, organism-based; conditions: in vivo
[25] = Toxicity in BALB/c mouse assessed as prolongation of bleeding time at 60 mg/kg, po measured after 90 mins; assay type: organism-based; conditions: in vivo, 1.5 h
[26] = Half life in BALB/c mouse at 5 mg/kg, po measured upto 24 hrs by LC-MS/MS analysis; assay type: ADME, organism-based; conditions: in vivo
[27] = Apparent volume of distribution in BALB/c mouse at 1 mg/kg, iv measured upto 24 hrs by LC-MS/MS analysis; assay type: ADME, organism-based; conditions: in vivo, read-out: Vz
Mus musculus [28] = test: Antiinflammatory activity in carrageenan-induced thrombosis in male BALB/c mouse model assessed as reduction in IL-1 beta level at 10 to 30 mg/kg, po by ELISA method; assay type: functional, organism-based; conditions: dose 10-30 mg/kg
[29] = biological target: T2, Coagulation factor XII (Homo sapiens); test: Covalent inhibition of FXIIa (unknown origin) at 20 to 40 nM measured after 10 mins; conditions: dose 20-40 nM
[30] = Toxicity in BALB/c mouse assessed as effect on UA level in serum at 60 to 100 mg/kg, po measured after 14 days; assay type: organism-based; conditions: in vivo, 336 h, dose 60-100 mg/kg, time 14 day
[31] = AUC (0 to infinity) in BALB/c mouse at 1 mg/kg, iv measured upto 24 hrs by LC-MS/MS analysis; assay type: ADME, organism-based; conditions: in vivo

Ratio IC50 [3]: > 670
Stability [4]: Stable
IC50 (Coagulation factor XII [6]): 37 nM
SMILES: CC(C)N1CCN(c2ccc(C(=O)n3nc(-c4ccccn4)nc3N)c3ccccc23)CC1
Activity (Mus musculus [1]): Dose-Dependent Effect
Activity (Mus musculus [2]): Active
Activity (Mus musculus [5]): Dose-Dependent Effect
Activity (Smooth muscle cell): Active

AUC(0-inf) [7]: 17.8 ng·h/mL
half-life [9]: 0.75 h
Ki (Coagulation factor XII [11]): 11.4 nM
MRT inf [13]: 1.6 h
Ratio IC50 [3]: > 1190
K [15]: 2.37 10^6/M/min
Stability [4]: Stable
bioavailability [16]: 28.2%
Tmax [17]: 0.39 h
CL [23]: 1270 mL/min/kg
Tmax [24]: 1 h
half-life [26]: 1.71 h
Vd [27]: 105 L/kg
inhibition [29]: Active
AUC(0-inf) [31]: 13.3 ng·h/mL
SMILES: CC(C)N1CCCN(c2ccc(C(=O)n3nc(-c4ccccn4)nc3N)c3ccccc23)CC1
Activity [8]: Non-Toxic
Activity [10]: Non-Toxic
Activity [12]: Non-Toxic
Activity (Mus musculus [2]): Active
Activity [14]: Non-Toxic
Activity (Mus musculus [18]): Active
Activity [19]: Non-Toxic
Activity [20]: Non-Toxic
Activity [21]: Non-Toxic
Activity [22]: Non-Toxic
Activity [25]: Non-Toxic
Activity (Mus musculus [28]): Active
Activity [30]: Non-Toxic

Source: ChEMBL document CHEMBL5500412, “Discovery of Highly Selective, Potent, Covalent, and Orally Bioavailable Factor XIIa Inhibitors for the Treatment of Thrombo-Inflammation” (J Med Chem, 2024)
